Measured values as given in ChEMBL document CHEMBL6153025, “Multidrug-resistant bacteria quorum-sensing inhibitors: A particular focus on Pseudomonasaeruginosa” (Eur J Med Chem, 2025).
Converted amounts (≈) assume the structure as drawn.

Columns and labels:
Pseudomonas aeruginosa [1] = experiment: Antibiofilm activity against Pseudomonas aeruginosa ATCC 27853 assessed as inhibition of biofilm formation at 8 microg/ml incubated for 24 hrs by crystal violet staining based analysis relative to control; format: functional; parameters: scale not given: the % may be the effect or the level left; conditions: dose 8 µg/ml
Pseudomonas aeruginosa [2] = experiment: Anti-virulence effect in Pseudomonas aeruginosa PAO1 assessed as inhibition of rhamnolipid production at 10 uM relative to control; format: functional; parameters: scale not given: the % may be the effect or the level left
Pseudomonas aeruginosa [3] = experiment: Antivirulence activity against Pseudomonas aeruginosa PAO1 assessed as inhibition of pyocyanin production at 16 ug/ml relative to control; format: functional; parameters: scale not given: the % may be the effect or the level left; conditions: dose 16 µg/ml
Pseudomonas aeruginosa [4] = experiment: Downregulation of lasA mRNA expression in Pseudomonas aeruginosa PAO1 at 160 ug/ml incubated for 6 hrs by RT-qPCR analysis relative to control; format: functional; conditions: dose 160 µg/ml
Pseudomonas aeruginosa [5] = experiment: Antibiofilm activity against Pseudomonas aeruginosa PA14 assessed as reduction in biofilm formation; format: functional
Pseudomonas aeruginosa [6] = experiment: Anti-virulence activity in Pseudomonas aeruginosa PAO1 assessed as reduction in pyoverdine production at 160 ug/ml by absorbance based analysis relative to control; format: functional; parameters: scale not given: the % may be the effect or the level left; conditions: dose 160 µg/ml
Pseudomonas aeruginosa [7] = experiment: Antibiofilm activity against Pseudomonas aeruginosa PAO1 assessed as inhibition of biofilm formation incubated for 24 hrs by crystal violet staining based assay; format: functional, organism-based; conditions: PAO1, 24 h
Pseudomonas aeruginosa [8] = experiment: Antivirulence activity in Pseudomonas aeruginosa PAO1 assessed as reduction in pyocyanin production at 10 uM incubated for 24 hrs by absorbance based analysis relative to control; format: functional; parameters: scale not given: the % may be the effect or the level left
Pseudomonas aeruginosa [9] = experiment: Antibiofilm activity against Pseudomonas aeruginosa ATCC 27853 assessed as reduction in biofilm formation at 10 uM relative to control; format: functional; parameters: scale not given: the % may be the effect or the level left
Pseudomonas aeruginosa [10] = experiment: Antibiofilm activity against Pseudomonas aeruginosa PAO1 assessed as inhibition of biofilm formation at 100 uM relative to control; format: functional; parameters: scale not given: the % may be the effect or the level left
[11] = Inhibition of quorum sensing system in Pseudomonas aeruginosa PAO1 expressing lasB-gfp at 10 uM relative to control
Pseudomonas aeruginosa [12] = experiment: Downregulation of pqsR mRNA expression in Pseudomonas aeruginosa PAO1; format: functional
Pseudomonas aeruginosa [13] = experiment: Antibiofilm activity against Pseudomonas aeruginosa PAO1 assessed as inhibition of biofilm formation at 16 ug/ml incubated for 24 hrs by crystal violet staining based assay relative to control; format: functional; parameters: scale not given: the % may be the effect or the level left; conditions: dose 16 µg/ml
Pseudomonas aeruginosa [14] = experiment: Antibacterial activity against Pseudomonas aeruginosa PAO1 by broth microdilution method; format: functional
Pseudomonas aeruginosa [15] = experiment: Downregulation of pqsA mRNA expression in Pseudomonas aeruginosa PAO1; format: functional
Pseudomonas aeruginosa [16] = experiment: Antibiofilm activity against Pseudomonas aeruginosa ATCC 15442 assessed as inhibition of biofilm formation at 16 ug/ml relative to control; format: functional; parameters: scale not given: the % may be the effect or the level left; conditions: dose 16 µg/ml
Pseudomonas aeruginosa [17] = experiment: Antibacterial activity against Pseudomonas aeruginosa ATCC 15442 assessed as reduction in bacterial cell growth incubated for 18 hrs by two fold serial microdilution method; format: functional
Pseudomonas aeruginosa [18] = experiment: Downregulation of rhlA mRNA level in Pseudomonas aeruginosa PAO1 at 10 uM by RT-qPCR analysis; format: functional
[19] = Inhibition of quorum sensing system in Pseudomonas aeruginosa PAO1 expressing lasB-gfp assessed as inhibition of lasB expression at 50 ug/ml incubated for 8 hrs by microplate reader based analysis relative to control; conditions: dose 50.0 µg/ml
Pseudomonas aeruginosa [20] = experiment: Downregulation of lasB mRNA expression in Pseudomonas aeruginosa PAO1 at 160 ug/ml incubated for 6 hrs by RT-qPCR analysis relative to control; format: functional; conditions: dose 160 µg/ml
Pseudomonas aeruginosa [21] = experiment: Antibacterial activity against Pseudomonas aeruginosa PAO1 assessed as bacterial growth inhibition after 24 hrs by liquid microdilution method; format: functional
Pseudomonas aeruginosa [22] = experiment: Downregulation of lasI mRNA expression in Pseudomonas aeruginosa PAO1 at 16 ug/ml relative to control; format: functional; conditions: dose 16 µg/ml
Pseudomonas aeruginosa [23] = experiment: Downregulation of lasR mRNA expression in Pseudomonas aeruginosa PAO1 at 16 ug/ml relative to control; format: functional; conditions: dose 16 µg/ml
Pseudomonas aeruginosa [24] = experiment: Downregulation of rhlI mRNA expression in Pseudomonas aeruginosa PAO1 at 160 ug/ml incubated for 6 hrs by RT-qPCR analysis relative to control; format: functional; conditions: dose 160 µg/ml
Pseudomonas aeruginosa [25] = experiment: Downregulation of rhlR mRNA expression in Pseudomonas aeruginosa PAO1 at 160 ug/ml incubated for 6 hrs by RT-qPCR analysis relative to control; format: functional; conditions: dose 160 µg/ml
Pseudomonas aeruginosa [26] = experiment: Antibacterial activity against Pseudomonas aeruginosa ATCC 27853 assessed as bacterial growth inhibition by agar diffusion assay; format: functional
Pseudomonas aeruginosa [27] = experiment: Antibacterial activity against Pseudomonas aeruginosa ATCC 27853; format: functional, organism-based
Pseudomonas aeruginosa [28] = experiment: Antivirulence activity against Pseudomonas aeruginosa PAO1 assessed as inhibition of pyocyanin production at 25 ug/ml incubated for 16 hrs under agitation by photometric analysis relative to control; format: functional; parameters: scale not given: the % may be the effect or the level left; conditions: dose 25 µg/ml

c1cc2c(cc1O[C@H]1OC[C@H]3[C@@H]1CO[C@@H]3c1ccc3c(c1)OCO3)OCO2 [SESAMOLIN]
Activity (Pseudomonas aeruginosa [1]): 97%
Activity (Pseudomonas aeruginosa [2]): 42%
Activity (Pseudomonas aeruginosa [3]): 79%
Activity (Pseudomonas aeruginosa [4]): 53.95%
MIC (Pseudomonas aeruginosa [5]): 150 µg/mL (≈ 405 µM)

CCCCCCCCn1ccnc1
Activity (Pseudomonas aeruginosa [6]): 88%
IC50 (Pseudomonas aeruginosa [7]): 740 nM
Activity (Pseudomonas aeruginosa [8]): 97.37%

CCCCCCCCSSc1nc2ccccc2c(=O)[nH]1
Activity (Pseudomonas aeruginosa [9]): 46%

O=Cc1ccc2c(c1)OC(c1ccc(O)c(O)c1)O2 (centres undefined)
Activity (Pseudomonas aeruginosa [10]): 44.63%
inhibition [11]: 30%

Cc1nc2ccccc2nc1CSc1nc2ccccc2c(=O)n1-c1ccc(F)cc1
Activity (Pseudomonas aeruginosa [12]): 90%
Activity (Pseudomonas aeruginosa [13]): 46.37%
MIC (Pseudomonas aeruginosa [14]): 500 µM (≈ 214 µg/mL)
Activity (Pseudomonas aeruginosa [15]): 90%

O=c1c2c(Cl)cccc2ncn1Cc1ccc(NCc2ccco2)cc1
Activity (Pseudomonas aeruginosa [16]): 26.7%
MIC (Pseudomonas aeruginosa [17]): > 50 µM

COc1cc(C)c(C(=O)Oc2cc(C)c(C(=O)O)c(O)c2)c(O)c1 [EVERNIC ACID]
Activity (Pseudomonas aeruginosa [18]): 50%
inhibition [19]: 54%

C=CCSSc1nc2ccccc2c(=O)[nH]1
Activity (Pseudomonas aeruginosa [9]): 46%

O=C/C=C/c1ccccc1
Activity (Pseudomonas aeruginosa [20]): 28%
MIC (Pseudomonas aeruginosa [21]): 11.3 µM (≈ 1.5 µg/mL)
Activity (Pseudomonas aeruginosa [22]): 86%
Activity (Pseudomonas aeruginosa [23]): 98.56%
IC50 (Pseudomonas aeruginosa [7]): 2290 nM
Activity (Pseudomonas aeruginosa [24]): 70%
Activity (Pseudomonas aeruginosa [25]): 99%
Activity (Pseudomonas aeruginosa [4]): 65%

COc1ccc(C(=O)CSc2nc3ccccc3s2)c(OC)c1
MIC (Pseudomonas aeruginosa [26]): > 512 µg/mL
IC50 (Pseudomonas aeruginosa [27]): 45.5 µg/mL (≈ 132 µM)

COc1cccc(C(=O)CSc2nc3ccccc3s2)c1
MIC (Pseudomonas aeruginosa [26]): > 512 µg/mL
IC50 (Pseudomonas aeruginosa [27]): 182 µg/mL (≈ 578 µM)

CC1=C(/C=C/C(C)=C/C=C/C(C)=C/C=C/C=C(C)/C=C/C=C(C)/C=C/C2=C(C)C[C@@H](O)CC2(C)C)C(C)(C)C[C@H](O)C1 [ZEAXANTHIN]
Activity (Pseudomonas aeruginosa [18]): 43%
inhibition [19]: 67.8%

O=C(O)c1ccccc1O [SALICYLIC ACID]
Activity (Pseudomonas aeruginosa [20]): 22%
MIC (Pseudomonas aeruginosa [21]): 11.3 µM (≈ 1.57 µg/mL)
Activity (Pseudomonas aeruginosa [22]): 60%
Activity (Pseudomonas aeruginosa [23]): 78%
IC50 (Pseudomonas aeruginosa [7]): 3620 nM
Activity (Pseudomonas aeruginosa [24]): 82%
Activity (Pseudomonas aeruginosa [25]): 70%
Activity (Pseudomonas aeruginosa [4]): 31%
Activity (Pseudomonas aeruginosa [28]): 32%

c1cc2c(cc1[C@H]1OC[C@H]3[C@@H]1CO[C@@H]3c1ccc3c(c1)OCO3)OCO2 [SESAMIN]
Activity (Pseudomonas aeruginosa [1]): 92%
Activity (Pseudomonas aeruginosa [2]): 51.31%
Activity (Pseudomonas aeruginosa [3]): 87%
MIC (Pseudomonas aeruginosa [5]): 75 µg/mL (≈ 212 µM)

CCCCCCn1ccnc1
Activity (Pseudomonas aeruginosa [6]): 60%
Activity (Pseudomonas aeruginosa [8]): 97%
